Measured values published in patent publication US20140309295A1, “ANTIEPILEPTIC, HYPOCHOLESTEROLEMIC AND NEUROPROTECTIVE COMPOUND” (NEURON BIOPHARMA, S.A., priority 2009, published 2014).

What was measured:
caspase 3/7 = assay: Inhibition of camptothecin-induced activation of caspase 3/7 in SK-N-MC cells; type: cell-based, human; conditions: 100 μM mevalonate with NST0037 pretreatment
Protocol: The assay was performed on human neuroblastoma SK-N-MC cells in culture from the American Type Culture Collection (ATCC), in all cases strict rules of sterility were followed and the manipulation was performed in class II biological safety cabinets following European standard EN 12469. The cells were maintained in the following culture medium: Minimum Essential Medium Eagle (MEM) supplemented with 1 mM sodium pyruvate, 2 mM L-glutamine, 0.1 mM non-essential amino acids, 0.05 mg/ml gentamicin and 10% fetal bovine serum. The induction of apoptosis on the cells in culture was performed by means of incubation with camptothecin (CPT), which triggers cell apoptosis activation. The apoptosis was determined by means of the measurement of the activation of effector caspases, caspase 3 or caspase 7, for which a kit for the fluorometric detection of active caspase 3/7 (Apo-ONE® Homogeneous Caspase-3/7, Promega) was used. The active caspase 3 or 7 of the cells cause the rupture of a substrate, which leads to fluorescence emission, which is read by means of a fluorometer. The effect of the pretreatment of compound NST0037 at 10 and 40 μM on the activation of caspase 3/7 caused by 50 μM of camptothecin (CPT) in the SK-N-MC cells was thus analyzed. These cells, not exceeding 15 passages, were seeded on 96-well plates treated for adherent cells with a cell concentration of 5×10^4 cells/well, 3 wells of the plate were seeded for each condition of the assay. After 24 hours of cell incubation at 37° C. and 5% CO2, the pretreatment with NST0037 at 10 and 40 μM was performed. […] On the following day, fluorescence was measured (499/521 nm, […]).

[1] = system: human neuroblastoma SK-N-MC cells; assay: Protection against neuronal death induced by oxidative stress (xanthine/xanthine oxidase), WST-1; type: cell-based
Protocol: (§1) The assay was performed on human neuroblastoma SK-N-MC cells in culture from the American Type Culture Collection (ATCC), in all cases strict rules of sterility were followed and the manipulation was performed in class II biological safety cabinets following European standard EN 12469. The cells were maintained in the following culture medium: Minimum Essential Medium Eagle (MEM) supplemented with 1 mM sodium pyruvate, 2 mM L-glutamine, 0.1 mM non-essential amino acids, 0.05 mg/ml gentamicin and 10% fetal bovine serum.
The inhibition caused by compound NST0037 of cell death caused by treatment with xanthine/xanthine oxidase which generates oxidative damage (causes free radicals such as hydrogen peroxide, superoxide anion, hydroxyl radical), which triggers cell death, was analyzed. These cells, not exceeding 15 passages, were seeded on 96-well plates treated for adherent cells with a cell concentration of 5×10^4 cells/well; 3 wells of the plate were seeded for each condition of the assay.
After 24 hours of cell incubation at 37° C. and 5% CO2, the cell treatments were performed with 100 μl of total volume for the following conditions: • Control: culture medium (medium) • Xanthine/xanthine oxidase (XXO): medium plus 10 μM xanthine/60 mU/mL xanthine oxidase, causing the death of 50% of the cells. • XXO plus NST0037: medium plus XXO (10 μM/60 mU/mL) plus NST0037 at 1, 4, 10, 20, 40 or 100 μM.
The cells were incubated (at 37° C. and 5% CO2) with these treatments for 22 hours, after which time the WST-1 reagent (Roche) was added. The Test WST-1 is based on the measurement of metabolic activity. Cell damage causes the loss of the ability of cells to obtain the energy necessary to maintain their metabolic functions and cell growth, therefore the metabolically active (live) cells reduce tetrazolium salt to formazan by means of the succinate-tetrazolium reductase system (of the mitochondrial respiratory chain). The formazan which is formed can be detected colorimetrically since it has an absorbance of 440 nm. The reading was taken in a plate reader at 440 nm 2 hours after adding the reagent.
The assay was performed on human neuroblastoma SK-N-MC cells in culture from the American Type Culture Collection (ATCC), in all cases strict rules of sterility were followed and the manipulation was performed in class II biological safety cabinets following European standard EN 12469. […]
The effect of mevalonate on the protection caused by compound NST0037 against cell death caused by the treatment with xanthine/xanthine oxidase generating oxidative damage and cell death was analyzed. […]

[2] = system: human neuroblastoma SK-N-MC cells; assay: Inhibition of camptothecin-induced apoptosis by flow cytometry (sub-G1); type: cell-based; conditions: pretreatment 40 μM NST0037 with 100 μM mevalonate
Protocol: as §1
The inhibition caused by compound NST0037 against apoptosis (programmed cell death) caused by treatment with camptothecin which inhibits the enzyme Topoisomerase I, which prevents DNA duplication and triggers apoptotic cell death, was analyzed. These cells, not exceeding 15 passages, were seeded on 6-well plates treated for adherent cells with a cell concentration of 8×10^5 cells/well and 7×10^5 cells/well for the assay with pretreatment; 2 wells of the plate were seeded for each condition of the assay.
After 24 hours of cell incubation at 37° C. and 5% CO2, the cell treatments were performed with 2 ml of total volume for the following conditions: • Control: culture medium (medium) • Camptothecin: medium plus camptothecin 50 μM. • Camptothecin plus Z-VAD-fmk: medium plus 50 μM camptothecin plus 50 μM Z-VAD-fmk, as positive inhibition control. • Camptothecin plus NST0037: medium plus 50 μM camptothecin plus NST0037 at 10, 40 or 100 μM.
In the assay with pretreatment, the cells were previously treated with 40 μM of NST0037, 100 μM of mevalonate or both together for 24 hours and then they were treated with 50 μM camptothecin, the rest of the procedure was similar to the assay without pretreatment.
The cells were incubated (at 37° C. and 5% CO2) with these treatments for 6 hours, after which time they were collected along with their culture medium and centrifuged at 300×g for 5 minutes. The medium was removed, a washing was performed with PBS and the cells were fixed for 2 minutes with 500 μl of 70% ethanol at −20° C. Once fixed, they were centrifuged at 400×g for 5 minutes, washed with PBS and 0.05 mg/ml propidium iodide, diluted in cycling buffer (0.1% sodium citrate, 0.3% Nonidet P-40 and 0.02 mg/ml RNase) were added and they were incubated for 1 hour at 37° C. After this time they were analyzed by flow cytometry, comparing the fluorescence of propidium iodide against the amount of DNA. The percentage of apoptosis was measured on the sub-G1 region of each of the conditions.

`CC(O)(CCO)CC(=O)O` (stereo not shown) [mevalonate, reference compound] was tested, and the “effect of mevalonate on inhibition of caspase 3/7 by NST0037” value (caspase 3/7) was “reverted this inhibition”, the “effect of mevalonate on protection by NST0037 against death by XXO” value ([1]; 40 μM NST0037 plus mevalonate at 10, 40 and 100 μM) was “inhibited” and the “protection by mevalonate alone against death by XXO” value ([1]; mevalonate at 10, 40 or 100 μM) was “does not protect against death by XXO”. For the same compound, the “effect of mevalonate on the protection exerted by NST0037 against apoptosis” value [2] was “partially inhibited”.
